Experimental findings from ChEMBL document CHEMBL1641574 (Bioorg Med Chem, 2011) are described below.

By IC50 is commonly meant the midpoint of a concentration-inhibition curve. In general, Ki refers to a dissociation constant, usually derived from enzyme kinetics or from competition with a known ligand. A high value points to lower affinity.

Assay type in all cases: cell-based
Test [1] addresses T1, Sodium-dependent dopamine transporter (Homo sapiens, UniProt Q01959). In words: Inhibition of [3H]dopamine uptake at human DAT expressed in mouse N2A cells.
Test [2] addresses T1, Sodium-dependent dopamine transporter. Briefly: Displacement of [3H]WIN-35428 from human DAT stably expressed in mouse N2A cells by scintillation countnig.
For test [3] the target is unchanged. In words: Binding affinity to human DAT expressed in UV irradiated mouse N2A cells by photoaffinity labeling assay. As to conditions: tested as the 125I-labelled form.

Activity calls are given as the source filed them. The calls are words filed in the database; no cut-off is given here.

T1 sequence (Q01959 whole entry): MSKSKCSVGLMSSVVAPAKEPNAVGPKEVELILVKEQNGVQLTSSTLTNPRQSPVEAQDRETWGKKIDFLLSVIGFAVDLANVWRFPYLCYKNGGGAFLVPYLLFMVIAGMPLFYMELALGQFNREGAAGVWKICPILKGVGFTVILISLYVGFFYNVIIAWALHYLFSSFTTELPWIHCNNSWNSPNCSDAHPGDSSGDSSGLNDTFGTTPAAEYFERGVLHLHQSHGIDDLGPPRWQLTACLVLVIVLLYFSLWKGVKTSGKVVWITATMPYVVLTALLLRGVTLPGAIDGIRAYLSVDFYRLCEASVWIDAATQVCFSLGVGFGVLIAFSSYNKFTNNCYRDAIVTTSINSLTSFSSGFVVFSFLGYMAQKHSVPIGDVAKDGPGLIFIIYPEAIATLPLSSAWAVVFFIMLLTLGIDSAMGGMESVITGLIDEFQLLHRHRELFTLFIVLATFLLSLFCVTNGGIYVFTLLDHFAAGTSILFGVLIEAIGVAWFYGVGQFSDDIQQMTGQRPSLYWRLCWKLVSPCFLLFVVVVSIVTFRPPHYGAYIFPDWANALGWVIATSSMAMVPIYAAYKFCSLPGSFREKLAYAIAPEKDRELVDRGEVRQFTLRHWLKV

Take `COC(=O)[C@H](c1ccc(I)cc1)[C@H]1CCCCN1` (racemic): in test [1], the IC50 came to 0.011 µM. Also, in test [2], affinity was put at a Ki of 0.014 µM.
On the same counts, the results for `COC(=O)[C@H](c1cccc(I)c1)[C@H]1CCCCN1` (racemic) are 0.014 µM and 0.0045 µM.
Consider `COC(=O)[C@H](c1ccc(I)cc1)[C@H]1CCCCN1Cc1ccc(N=[N+]=[N-])cc1` (racemic), for which, in test [1], it took 2.76 µM to reach half-maximal inhibition (IC50). Besides, the Ki in test [2] came to 0.363 µM. For the same compound, the result in test [3] was Active.
`COC(=O)[C@H](c1ccc(I)cc1)[C@H]1CCCCN1Cc1cccc(N=[N+]=[N-])c1` (racemic) showed an IC50 in test [1] of 7.97 µM. Moreover, in test [2], affinity was put at a Ki of 2.75 µM.
Regarding `COC(=O)[C@H](c1ccc(I)cc1)[C@H]1CCCCN1Cc1ccccc1N=[N+]=[N-]` (racemic), it took 1.23 µM to reach half-maximal inhibition in test [1] (IC50). This compound returned a Ki in test [2] of 0.517 µM.
On to `COC(=O)[C@H](c1cccc(I)c1)[C@H]1CCCCN1Cc1ccc(N=[N+]=[N-])cc1` (racemic), for which the half-maximal inhibitory concentration (IC50) in test [1] was 1.83 µM. Further, the Ki in test [2] was found to be 0.658 µM.
On the same counts, the results for `COC(=O)[C@H](c1cccc(I)c1)[C@H]1CCCCN1Cc1cccc(N=[N+]=[N-])c1` (racemic) are 4.63 µM and 2.06 µM.
The compound `COC(=O)[C@H](c1cccc(I)c1)[C@H]1CCCCN1Cc1ccccc1N=[N+]=[N-]` (racemic) yielded an IC50 in test [1] of 2.7 µM. The compound also returned a Ki in test [2] of 1.11 µM.
